Several values for one entry are separate records, joined by “and”; a condition that tells them apart may be missing. Equal values may be shown once. Read-outs that look alike come from different tables or passages of the source.
Legend:
Type in all cases: physicochemical
[1] = Solubility in different aqueous media at 37° C.; details: for solubility at 1 day / solubility at 3 days: 37 °C, thermodynamic from solid
[2] = Solubility of milvexian forms in organic solvent systems; details: 20 °C, organic solvent or mixture, thermodynamic from solid, 20° C.; for solubility at 2 weeks: read-out: Solubility in mg/mL solution 2 weeks; for solubility at 24 hours: read-out: Solubility in mg/mL solution 24 hours
Method: While heating of the feed solution is a viable solution for production, it is a more complex set-up and with risk of crashing out dissolved solids in case of cold spots and plant safety. Various solvent systems (See Table 11 below) were investigated with primary focus on solvent systems containing DCM due to its low boiling point and excellent solubilization properties.
Based on the data it was determined that 70/30 w/w % DCM/MeOH and 80/20 w/w % were promising solvent mixtures and more accurate solubility determination was carried out for 80/20 w/w % DCM/MeOH for both FORM A and P1.Acetone solvate at 20° C. with the results shown in Table 12 below.
P1.Acetone was the preferred crystalline form of milvexian for physical stability and manufacturability reasons. Based on the above, 80/20 w/w % DCM/MeOH solvent system was selected for development due to highly increase solubility over the 90/10 w/w % Acetone/Water solvent system.

[3] = Solubility test of milvexian (P1.Acetone) in DCM/MeOH 70/30 w/w %, appearance over 20 hours; details: 3.75 g in 19.83 g DCM and 8.5 g MeOH (70/30 w/w %); approximately 20 hours stirring
Method: Due to the turbid appearance of the solution when dissolving the milvexian (P1.Acetone) in 70/30 w/w % DCM/MeOH, a solubility test was performed by adding 3.75 g of milvexian (P1.Acetone) to a mixture of 19.83 g DCM and 8.5 g MeOH (DCM/MeOH 70/30 w/w %) under stirring by a magnetic stirrer. The appearance of the solution was evaluated at different timepoints over 20 hours.

C[C@@H]1CCC[C@H](n2cnc(-c3cc(Cl)ccc3-n3cc(Cl)nn3)cc2=O)c2cc(ccn2)-c2c(cnn2C(F)F)NC1=O [P1.Acetone solvate]
Solubility, μg dissolved per mL at 37° C., replicates ([1]; 0.05M sodium acetate buffer pH 4.5, 1 day, single replicates): 1.57 µg/mL
Solubility, μg dissolved per mL at 37° C., replicates ([1]; 0.05M sodium acetate buffer pH 4.5, 3 days, single replicates): 1.95 µg/mL
Solubility, μg dissolved per mL at 37° C., replicates ([1]; 0.05M sodium phosphate buffer pH 6.8, 1 day, single replicates): 1.29 µg/mL and 1.48 µg/mL
Solubility, μg dissolved per mL at 37° C., replicates ([1]; 0.05M sodium phosphate buffer pH 6.8, 3 days, single replicates): 1.62 µg/mL
solubility at 1 day ([1]; 0.1M HCl, pH 1, simulated gastric fluid, 0.1M HCl, 1 day, average of 3 replicates, read-out: Solubility, μg dissolved per mL at 37° C., Average): 3.43 µg/mL
solubility at 1 day ([1]; 0.1M HCl, pH 1, simulated gastric fluid, 0.1M HCl, 1 day, single replicates, read-out: Solubility, μg dissolved per mL at 37° C., replicates): 3.36 µg/mL
solubility at 3 days ([1]; 0.1M HCl, pH 1, simulated gastric fluid, 0.1M HCl, 3 days, average of 3 replicates, read-out: Solubility, μg dissolved per mL at 37° C., Average): 3.49 µg/mL
solubility at 3 days ([1]; 0.1M HCl, pH 1, simulated gastric fluid, 0.1M HCl, 3 days, single replicates, read-out: Solubility, μg dissolved per mL at 37° C., replicates): 3.59 µg/mL
Solubility, μg dissolved per mL at 37° C., replicates ([1]; 0.1M HCl, 1 day, single replicates): 3.47 µg/mL and 3.46 µg/mL
Solubility, μg dissolved per mL at 37° C., replicates ([1]; 0.1M HCl, 3 days, single replicates): 3.30 µg/mL and 3.58 µg/mL
solubility at 1 day ([1]; sodium acetate buffer, pH 4.5, aqueous buffer, 0.05M sodium acetate buffer pH 4.5, 1 day, average of 3 replicates, read-out: Solubility, μg dissolved per mL at 37° C., Average): 1.69 µg/mL
solubility at 1 day ([1]; sodium acetate buffer, pH 4.5, aqueous buffer, 0.05M sodium acetate buffer pH 4.5, 1 day, single replicates, read-out: Solubility, μg dissolved per mL at 37° C., replicates): 1.81 µg/mL
solubility at 3 days ([1]; sodium acetate buffer, pH 4.5, aqueous buffer, 0.05M sodium acetate buffer pH 4.5, 3 days, average of 3 replicates, read-out: Solubility, μg dissolved per mL at 37° C., Average): 1.88 µg/mL
solubility at 3 days ([1]; sodium acetate buffer, pH 4.5, aqueous buffer, 0.05M sodium acetate buffer pH 4.5, 3 days, single replicates, read-out: Solubility, μg dissolved per mL at 37° C., replicates): 1.85 µg/mL
solubility at 1 day ([1]; sodium phosphate buffer, pH 6.8, aqueous buffer, 0.05M sodium phosphate buffer pH 6.8, 1 day, average of 3 replicates, read-out: Solubility, μg dissolved per mL at 37° C., Average): 1.43 µg/mL
solubility at 1 day ([1]; sodium phosphate buffer, pH 6.8, aqueous buffer, 0.05M sodium phosphate buffer pH 6.8, 1 day, single replicates, read-out: Solubility, μg dissolved per mL at 37° C., replicates): 1.53 µg/mL
solubility at 3 days ([1]; sodium phosphate buffer, pH 6.8, aqueous buffer, 0.05M sodium phosphate buffer pH 6.8, 3 days, average of 3 replicates, read-out: Solubility, μg dissolved per mL at 37° C., Average): 1.6 µg/mL
solubility at 3 days ([1]; sodium phosphate buffer, pH 6.8, aqueous buffer, 0.05M sodium phosphate buffer pH 6.8, 3 days, single replicates, read-out: Solubility, μg dissolved per mL at 37° C., replicates): 1.56 µg/mL
solubility at 2 weeks ([2]; 60/40 DCM/MeOH, 60/40 DCM/MeOH): 99 mg/mL
solubility at 24 hours ([2]; 60/40 DCM/MeOH, 60/40 DCM/MeOH): 102 mg/mL
solubility at 2 weeks ([2]; 70/30 DCM/MeOH, 70/30 DCM/MeOH): 160 mg/mL
solubility at 2 weeks ([2]; 80/20 DCM/MeOH, 80/20 DCM/MeOH): 227 mg/mL
solubility at 24 hours ([2]; 80/20 DCM/MeOH, 80/20 DCM/MeOH): 226 mg/mL
solubility at 2 weeks ([2]; 90/10 DCM/MeOH, 90/10 DCM/MeOH): 225 mg/mL
solubility at 24 hours ([2]; 90/10 DCM/MeOH, 90/10 DCM/MeOH): 222 mg/mL
solubility at 2 weeks ([2]; 95/5 DCM/MeOH, 95/5 DCM/MeOH): 162 mg/mL
solubility at 24 hours ([2]; 95/5 DCM/MeOH, 95/5 DCM/MeOH): 163 mg/mL
solubility at 2 weeks ([2]; 100% DCM, 100% DCM): 33 mg/mL
solubility at 24 hours ([2]; 100% DCM, 100% DCM): 33 mg/mL
solubility at 2 weeks ([2]; 100% MeOH, 100% MeOH): 4.8 mg/mL
solubility at 24 hours ([2]; 100% MeOH, 100% MeOH): 4.6 mg/mL
solubility test, appearance of the solution [3]: not fully dissolved
